Entries after “also recorded” stand apart in the source; their conditions may differ.
Key:
[1] = target: T1, MCL-1/FITC-NOXA-B interaction (Homo sapiens, UniProt Q07820); assay: Fluorescence anisotropy competition, MCL-1/FITC-NOXA-B; type: biochemical; settings: [MCL-1] 75 nM, tracer FITC-NOXA-B 25 nM, Tris buffer pH 7.4, triplicate; printed as ≫; read-out: IC50 against MCL-1
T1 construct: Recombinant MCL-1_172–327 was expressed and purified as published previously; made in house

[2] = target: T2, BCL-XL (Homo sapiens, UniProt Q07817, DEL27-82); assay: Photolabelling of BCL-xL with Ac-RTA 4, ESI-MS; settings: pH 7.4
T2 construct: made in house

[3] = target: T3, MCL-1 (Homo sapiens, UniProt Q07820); assay: Photolabelling of recombinant MCL-1, ESI-MS
T3 construct: Recombinant MCL-1_172–327 was expressed and purified as published previously; made in house

[4] = target: T3, MCL-1; assay: Pull-down of biotinylated MCL-1 with avidin-agarose beads; settings: 20, 10 µM biotin-RTA 3, or 100 µM with excess label removed
Procedure: Pull-down of biotinylated MCL-1
The crude labelling mixture was incubated with avadin-agarose beads (50 µL) at r.t. for 2 hours with gentle agitation (input lanes 1-4 and their respective pull-down lanes 6-9). Note that for input lane 5/pull-down lane 10, excess biotin-RTA 3 was removed from the crude labelling mixture using a protein concentrator (10 kDa MWCO) prior to incubation with avidin-agarose beads. Following removal of the supernatant, the beads were washed twice with PBS (100 µL), then boiled at 90 °C for 10 mins in sample loading buffer to elute bound proteins. Samples were separated by SDS-PAGE: the gel (15% acrylamide) was run at a constant voltage of 180 V for 45 min, then the gel was stained with Coomassie Brilliant Blue (CBB) and the image obtained on a Molecular Imager ChemiDoc XRS.
Supplementary Figure 19: Isolation of biotinylated MCL-1 from crude labelling mixture through pull-down with avadin-agarose beads (CBB stained gel). Conditions: 5 µM MCL-1, 0-100 µM biotin-RTA 3, 1 µM Ru(II)(bpy)3-NOXA-B, 10 µM APS, 1 min irradiation, 50 mM […]
3 was used (lanes 7 and 8, respectively), in addition to when 100 µM biotin-RTA 3 was used and the excess label 3 was removed using a protein concentrator (lane 10). 50 µL avidin-agarose beads was used in pull-down experiments.

[5] = target: T3, MCL-1; assay: Competition of Ru(II)(bpy)3-NOXA-B 1-mediated MCL-1 photolabelling, in-gel fluorescence; type: biochemical; settings: 0-100 µM competitor; 5 µM MCL-1, 5 µM TAMRA-RTA 2, 1 µM 1, 10 µM APS, 1 min hν

T3 sequence (Q07820 172-327): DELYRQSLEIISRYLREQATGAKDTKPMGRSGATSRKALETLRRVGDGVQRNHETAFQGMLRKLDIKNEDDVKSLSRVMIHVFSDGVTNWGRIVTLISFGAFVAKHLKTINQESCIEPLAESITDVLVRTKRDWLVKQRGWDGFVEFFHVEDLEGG
T2 sequence (Q07817 with tags, fused parts or gaps DEL27-82, species assumed): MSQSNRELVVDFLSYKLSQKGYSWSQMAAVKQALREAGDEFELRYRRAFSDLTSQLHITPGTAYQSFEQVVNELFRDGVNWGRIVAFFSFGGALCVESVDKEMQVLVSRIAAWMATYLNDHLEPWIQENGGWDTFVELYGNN
T1 sequence (Q07820 172-327): as the sequence (Q07820 172-327) above

6b: variant Ac-BID sequence with key hot-spot residues exchanged (L90A and D95R) (EDIIRNIARHAAQVGRSXDRSIW; N-terminal acetyl; C-terminal amide; X18 = norleucine (Nle))
IC50 [1]: > 50 µM

[Ru+2].c1ccc(-c2ccccn2)nc1.c1ccc(-c2ccccn2)nc1.c1ccc(-c2ccccn2)nc1 [Ru(II)(bpy)3]
effect of photocatalyst concentration on BCL-xL labelling [2]: increased at higher concentrations of Ru(II)(bpy)3
labelling of BCL-xL with Ac-RTA 4 [2]: small amounts of BCL-xL could be labelled
photolabelling efficiency of MCL-1 versus targeted catalyst 1 ([3]; 20 mol% Ru(II)(bpy)3, 50 μM Ac-RTA 4, 10 μM APS, 1 min irradiation, pH 7.4): labelling was less efficient

CN(C)c1ccc(NC(=O)CCCCCNC(=O)CCCCC2SCC3NC(=O)NC32)cc1 (stereo not drawn) [compound 3]
background labelling with biotin-RTA 3 in the absence of 1 ([3]; 0 µM 1, 5 μM MCL-1, 5 µM biotin-RTA 3, 10 µM APS, 1 min hν): absence of background labelling
number of labels incorporated on MCL-1 ([3]; Ru(II)(bpy)3-NOXA-B 1-mediated, intact protein ESI-MS): single biotin labelling of MCL-1
oxidation at irradiation times greater than 1 min ([3]; biotin-RTA 3 5 µM, 1 µM 1, 10 µM APS, 15 mins irradiation shown): higher conversion to oxidised protein species
affinity purification of biotinylated MCL-1 [4]: Biotinylated MCL-1 was pulled-down; also recorded: could be affinity-purified with avidin-agarose beads

CC[C@H](C)[C@H](NC(=O)[C@H](CCCNC(=N)N)NC(=O)[C@H](CCCNC(=N)N)NC(=O)[C@H](CC(C)C)NC(=O)[C@H](CCC(N)=O)NC(=O)[C@H](C)NC(=O)[C@H](C)NC(C)=O)C(=O)NCC(=O)N[C@@H](CC(=O)O)C(=O)N[C@@H](CCCCN)C(=O)N[C@H](C(=O)N[C@@H](CC(N)=O)C(=O)N[C@@H](CC(C)C)C(=O)N[C@@H](CCCNC(=N)N)C(=O)N[C@@H](CCC(N)=O)C(=O)N[C@@H](CCCCN)C(=O)N[C@@H](CC(C)C)C(=O)N[C@@H](CC(C)C)C(=O)N[C@@H](CC(N)=O)C(N)=O)C(C)C [compound 5]
inhibition of MCL-1 labelling by Ac-NOXA-B [5]: did not completely abrogate labelling

From paper PMC7610391, “Photocatalytic proximity labelling of MCL-1 by a BH3 ligand” (Communications chemistry, 2019)
